Source: US20250257059A1, “PROTEIN TYROSINE PHOSPHATASE INHIBITORS AND USES THEREOF” (Nerio Therapeutics, Inc., priority 2022, published 2025)
Read-outs that look alike come from different tables or passages of the source.

Tests used:
[1] = test system: murine B16F10 melanoma cell line; assay: B16F10 IFNγ-induced cellular growth inhibition assay (xCELLigence RTCA); assay type: cell-based; details: B16F10 cells, 1 ng/mL mouse IFNγ, AUC of growth curve, read-out: B16 IFNγ Mediated Growth Inhibition Assay: AVG IC50
Method: Compound activity was determined using an interferon gamma (IFNγ)-induced cellular growth inhibition assay with the murine B16F10 melanoma cell line on an Agilent xCELLigence Real-Time Cell Analysis platform (RTCA). RTCA E-Plate View 96 plates (Agilent, 300601010) were pre-equilibrated with 50 μL of assay media (DMEM+10% FBS, Gibco 10566-024, Gibco 10082-147) at 37° C. in a humidified incubator before taking an initial measurement of impedance (sweep). B16F10 cells cultured in assay media were dissociated with TrypLE Express (Gibco 12605-010) for five minutes at 37° C., diluted in 3 volumes of assay buffer, centrifuged for 5 minutes at 500×g at room temperature before diluting cells to 7,700 cells/mL in assay media, plating 130 μL/well (1,000 cells/well) in the inner 60 wells of the assay plate, and adding 150 μL of assay media to the outer wells of the plate. Cells were incubated at room temperature for 20 min to allow cells to settle before placing them in the xCELLigence reader and incubating overnight at 37° C., sweeping wells every 15 minutes. After 24 hours, well readings were paused, plates were removed from the incubator and compounds were added using a Tecan D300e dispenser. All wells were normalized to a final concentration of 0.5% DMSO. Following a 30 min incubation at 37° C., recombinant mouse IFNγ (R&D Systems™ 485MI100) was diluted to 10 ng/mL in assay media and 20 μL was added to assay wells (1 ng/mL final concentration). Assay plates were placed in the xCELLigence reader and swept every 15 minutes.

[2] = target: full-length human PTPN2 (TC45) (1-387) (Homo sapiens (Human), UniProt P17706); assay: Enzymatic assay used to determine potency of PTPN2 inhibitors (full length PTPN2 DiFMUP assay); assay type: biochemical; details: 0.5 nM PTPN2, 100 μM DiFMUP, 30 min at room temperature
full-length human PTPN2 (TC45) (1-387), sequence (P17706 other isoform, or with tags, fused parts or gaps): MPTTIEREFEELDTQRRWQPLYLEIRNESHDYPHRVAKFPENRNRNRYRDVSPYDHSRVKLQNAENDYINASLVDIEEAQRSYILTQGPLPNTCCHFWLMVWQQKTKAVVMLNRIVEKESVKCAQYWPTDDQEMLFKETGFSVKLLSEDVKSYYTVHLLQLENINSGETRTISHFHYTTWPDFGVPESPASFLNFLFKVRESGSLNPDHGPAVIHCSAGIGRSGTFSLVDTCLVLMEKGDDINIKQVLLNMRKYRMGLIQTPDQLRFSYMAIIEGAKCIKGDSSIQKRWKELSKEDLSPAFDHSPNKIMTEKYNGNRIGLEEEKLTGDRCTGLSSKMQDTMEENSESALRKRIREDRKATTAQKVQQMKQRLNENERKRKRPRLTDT
Method: Compound activity was determined in an in vitro enzymatic assay using untagged, full-length human PTPN2 (TC45) (1-387) protein. PTPN2 was produced in E. coli as a GST-TEV fusion and the GST was removed by TEV digestion, followed by additional purification to yield full-length PTPN2 (SEQ ID 1). PTPN2 enzyme was diluted in assay buffer (50 mM HEPES pH7.5, 0.2 mM EDTA, 1 mM DTT, 0.02% Brij-35, 0.02% BSA) to a final concentration of 0.5 nM and added to black 384-well non-binding plates (Greiner, 781900). Compounds were subsequently added using a Tecan D300e dispenser. Following a 10 min incubation at room temperature, DiFMUP substrate (ThermoFisher, D22065) was added to a final concentration of 100 μM. Plates were transferred to a SpectraMax plate reader (Molecular Devices) and fluorescence intensity was measured (ex 358, em 455) after a 30 min incubation at room temperature. […] A four-parameter curve fit was used to determine IC50 values from % inhibition data.

Compound | IC50 ([1]; Mus musculus, B16-F10, 48 h) | IC50 [2] | IC50 ([1]; 48 hours)
O=C1CN(c2c(O)cc(CCN3CC4CCC3C4)cc2F)S(=O)(=O)N1 (stereo not shown) [Example 133] | 1040 nM | 3 nM | –
O=C1CN(c2c(O)cc(CC3CCCN(Cc4cc[nH]c4)C3)cc2F)S(=O)(=O)N1 (stereo not shown) [Example 39] | > 100000 nM | 63 nM | –
O=C1CN(c2c(O)cc(CC3CNC3)cc2F)S(=O)(=O)N1 [Example 69, 5-(4-(azetidin-3-ylmethyl)-2-fluoro-6-hydroxyphenyl)-1,2,5-thiadiazolidin-3-one 1,1-dioxide] | 13600 nM | 15 nM | –
O=C1CN(c2c(O)cc(CCN3CCC4(CCCC4)C3)cc2F)S(=O)(=O)N1 [Example 112] | 165 nM | – | –
O=C1CN(c2c(O)cc(CCN3CCCCC3)cc2F)S(=O)(=O)N1 [Example 90] | 1220 nM | 2 nM | –
O=C1CN(c2c(O)cc(CCN3CCC4(CC4)C3)cc2F)S(=O)(=O)N1 [Example 131] | 489 nM | 1 nM | –
O=C1CN(c2c(O)cc(CC3CCNC3)cc2F)S(=O)(=O)N1 (stereo not shown) [Example 27] | 9730 nM | 7 nM | –
O=C1CN(c2c(O)cc(CCN3CC4(CCC4)C3)cc2F)S(=O)(=O)N1 [Example 124] | 943 nM | 2 nM | –
CN1CCCCC1Cc1ccc(O)c(N2CC(=O)NS2(=O)=O)c1F (stereo not shown) [Example 74, 5-(2-fluoro-6-hydroxy-3-((1-methylpiperidin-2-yl)methyl)phenyl)-1,2,5-thiadiazolidin-3-one 1,1-dioxide] | 9290 nM | 161 nM | –
O=C1CN(c2c(O)ccc(CC3CCCCN3CCC3CCCC3)c2F)S(=O)(=O)N1 (stereo not shown) [Example 80] | 22700 nM | – | –
CC(C)CC1CCN(CCc2cc(O)c(N3CC(=O)NS3(=O)=O)c(F)c2)C1 (stereo not shown) [Example 85] | 331 nM | 2 nM | –
O=C1CN(c2c(O)ccc(CC3CCCCN3)c2F)S(=O)(=O)N1 (stereo not shown) [Example 75] | – | 20 nM | –
O=C1CN(c2c(O)cc(CCN3CCC(C(F)(F)F)C3)cc2F)S(=O)(=O)N1 (stereo not shown) [Example 96] | 680 nM | 2 nM | –
CC[C@H]1CCN(CCc2cc(O)c(N3CC(=O)NS3(=O)=O)c(F)c2)C1 [Example 109] | 162 nM | 3 nM | –
O=C1CN(c2c(O)cc(CCN3CCC4(CCCCC4)C3)cc2F)S(=O)(=O)N1 [Example 116] | 172 nM | 2 nM | –
CCCCCCN1CCCC(Cc2cc(O)c(N3CC(=O)NS3(=O)=O)c(F)c2)C1 (stereo not shown) [Example 36] | 81000 nM | 22 nM | –
O=C1CN(c2c(O)cc(C[C@@H]3CCCNCC3)cc2F)S(=O)(=O)N1 (single isomer, unassigned) [Example 59] | > 47000 nM | 16 nM | –
O=C1CN(c2c(O)cc(CC3CCCNCC3)cc2F)S(=O)(=O)N1 (stereo not shown) [Example 57] | – | 15 nM | –
O=C1CN(c2c(O)cc(C[C@H]3CCCNCC3)cc2F)S(=O)(=O)N1 (single isomer, unassigned) [Example 58] | > 100000 nM | 51 nM | –
O=C1CN(c2c(O)cc(CC3CCN(Cc4ccoc4)C3)cc2F)S(=O)(=O)N1 (stereo not shown) [Example 12] | 4340 nM | 12 nM | –
CCCC1NCCC1Cc1cc(O)c(N2CC(=O)NS2(=O)=O)c(F)c1 (stereo not shown) [Example 28] | > 57000 nM | 23 nM | –
CC(C)[C@H]1CCN(CCc2cc(O)c(N3CC(=O)NS3(=O)=O)c(F)c2)C1 [Example 135] | 290 nM | – | –
CC(C)C[C@@H]1CCN(CCc2cc(O)c(N3CC(=O)NS3(=O)=O)c(F)c2)C1 [Example 120] | 2640 nM | – | –
CCCC1CNCC1Cc1cc(O)c(N2CC(=O)NS2(=O)=O)c(F)c1 (stereo not shown) [Example 29] | > 62000 nM | 13 nM | –
CC(C)C1CN(CCc2cc(O)c(N3CC(=O)NS3(=O)=O)c(F)c2)C1 [Example 132] | – | 3 nM | 579 nM
O=C1CN(c2c(O)cc(CC3CCN(Cc4ccn[nH]4)C3)cc2F)S(=O)(=O)N1 (stereo not shown) [Example 18] | > 58000 nM | 7 nM | –

Compound | IC50 ([1]; Mus musculus, B16-F10, 48 h) | IC50 [2] | IC50 ([1]; 48 hours)
CCCC1CCN(Cc2cc(O)c(N3CC(=O)NS3(=O)=O)c(F)c2)C1 (stereo not shown) [Example 71] | 19300 nM | 65 nM | –
CC(C)CCN1CCCC(Cc2cc(O)c(N3CC(=O)NS3(=O)=O)c(F)c2)C1 (stereo not shown) [Example 41] | > 100000 nM | 47 nM | –
O=C1CN(c2c(O)cc(CC3CCN(CC4CCCO4)C3)cc2F)S(=O)(=O)N1 (stereo not shown) [Example 14] | 52800 nM | 14 nM | –
O=C1CN(c2c(O)cc(CN3CCCC3)cc2F)S(=O)(=O)N1 [Example 73] | 8620 nM | 92 nM | –
O=C1CN(c2c(O)cc(CCN3CC(F)C3)cc2F)S(=O)(=O)N1 [Example 136] | 937 nM | – | –
CC(C)CN1CCCC1CCc1cc(O)c(N2CC(=O)NS2(=O)=O)c(F)c1 (stereo not shown) [Example 68] | > 100000 nM | 46 nM | –
CC(C)CCN1CCCC1CCc1cc(O)c(N2CC(=O)NS2(=O)=O)c(F)c1 (stereo not shown) [Example 67] | > 100000 nM | 36 nM | –
O=C1CN(c2c(O)cc(CC3CCCN(CC4CCCO4)C3)cc2F)S(=O)(=O)N1 (stereo not shown) [Example 43] | 95900 nM | 63 nM | –
CN1CCC(Cc2cc(O)c(N3CC(=O)NS3(=O)=O)c(F)c2)C1 (stereo not shown) [Example 1, 5-(2-fluoro-6-hydroxy-4-((1-methylpyrrolidin-3-yl)methyl)phenyl)-1,2,5-thiadiazolidin-3-one 1,1-dioxide] | – | 7 nM | –
O=C1CN(c2c(O)cc(CCN3Cc4ccccc4C3)cc2F)S(=O)(=O)N1 [Example 128] | 610 nM | – | –
O=C1CN(c2c(O)cc(CCN3CCC4(CCOCC4)C3)cc2F)S(=O)(=O)N1 [Example 113] | 216 nM | – | –
O=C1CN(c2c(O)cc(CC3CCCN(Cc4cocn4)C3)cc2F)S(=O)(=O)N1 (stereo not shown) [Example 47] | – | 98 nM | –
COC[C@@H]1CCN(CCc2cc(O)c(N3CC(=O)NS3(=O)=O)c(F)c2)C1 [Example 117] | 331 nM | – | –
O=C1CN(c2c(O)cc(CCN3CC(C(F)(F)F)C3)cc2F)S(=O)(=O)N1 [Example 137] | 2160 nM | – | –
O=C1CN(c2c(O)cc(C[C@@H]3CCNC3)cc2F)S(=O)(=O)N1 (single isomer, unassigned) [Example 26] | – | 8 nM | –
O=C1CN(c2c(O)cc(CCN3CCOCC3)cc2F)S(=O)(=O)N1 [Example 89] | 8910 nM | – | –
CC1CN(CCc2cc(O)c(N3CC(=O)NS3(=O)=O)c(F)c2)C1 [Example 140] | 472 nM | – | –
O=C1CN(c2c(O)cc(C[C@H]3CCNC3)cc2F)S(=O)(=O)N1 (single isomer, unassigned) [Example 25] | – | 15 nM | –
CC(C)CCCN1CCCCC1Cc1ccc(O)c(N2CC(=O)NS2(=O)=O)c1F (stereo not shown) [Example 79] | 3450 nM | – | –
O=C1CN(c2c(O)cc(CC3CCN(Cc4ccco4)C3)cc2F)S(=O)(=O)N1 (stereo not shown) [Example 7] | 2470 nM | – | –
CC1(C)CN(CCc2cc(O)c(N3CC(=O)NS3(=O)=O)c(F)c2)C1 [Example 127] | 657 nM | – | –
CC(C)(C)C1CCN(CCc2cc(O)c(N3CC(=O)NS3(=O)=O)c(F)c2)C1 (stereo not shown) [Example 111] | 130 nM | – | –
COC1CCN(CCc2cc(O)c(N3CC(=O)NS3(=O)=O)c(F)c2)CC1 [Example 104] | 723 nM | – | –
O=C1CN(c2c(O)cc(CCN3CC[C@@H](C(F)(F)F)C3)cc2F)S(=O)(=O)N1 [Example 122] | 2670 nM | – | –
O=C1CN(c2c(O)cc(CCN3CCCC(F)C3)cc2F)S(=O)(=O)N1 (stereo not shown) [Example 97] | 1540 nM | – | –
CC(C)[C@@H]1CCN(CCc2cc(O)c(N3CC(=O)NS3(=O)=O)c(F)c2)C1 [Example 134] | 516 nM | – | –
